# Test results reported in patent US20100075984A1, “DICARBONYLIC COMPOUNDS WITH ANTIBACTERIAL ACTIVITY” (LABORATORIOS SALVAT, S.A., priority 2006, published 2010).
# How the values were obtained:
# [1] = test system: Staphylococcus aureus (BCM-012); assay: Antimicrobial activity, microdilution in microtiter plate (MIC); assay type: cell-based; details: Staphylococcus aureus BCM-012 (SALVAT collection); two-fold serial dilutions, 96 well plates; incubation 24 h at 35° C.
# Procedure: (§1) In order to assess the antimicrobial activity of the compounds of the present invention a method of microdilution in microtiter plate was used. The compounds were diluted in a nutritious medium and, subsequently, distributed by two-fold serial dilutions in 96 well plates. Then, plates were inoculated with a bacterial suspension. After incubation for 24 h at 35° C. the minimum inhibitory concentration (MIC) of the drug in μg/mL was determined as the lowest concentration of compound which inhibits the growth of the bacterium. Results included in table 7 illustrate the antimicrobial activity of some of the compounds of the present invention in comparison with thus obtained with two compounds (linezolid and eperezolid) of a known antimicrobial activity. The antimicrobial activity of the compound versus Streptococcus faecalis (BCM-010, strain designation as for SALVAT collection) and Staphylococcus aureus (BCM-012, strain designation as for SALVAT collection), respectively, is shown in the different columns.
# [2] = test system: Streptococcus faecalis (BCM-010); assay: as above; assay type: cell-based; details: Streptococcus faecalis BCM-010 (SALVAT collection), two-fold serial dilutions, 96 well plates, incubation 24 h at 35° C.; for MIC: Enterococcus faecalis
# Procedure: as §1
SMILES,MIC [1],MIC [2],BCM-012 MIC [1],BCM-010 MIC [2]
"CC(=O)NC[C@H]1CN(c2ccc(N3CCN(C(=O)CO)CC3)c(F)c2)C(=O)O1 [Eperezolid, eperezolid, reference compound]",2 µg/mL,4 µg/mL,–,–
O=CNCC(=O)N1CCN(c2ccc(-c3cc(CNc4ccon4)on3)cc2F)CC1 [I_1],–,–,1 µg/mL,2 µg/mL
O=C(NCC(=O)N1CCN(c2ccc(-c3cc(CNc4ccon4)on3)cc2F)CC1)c1cccc(O)c1 [I_15],–,–,0.25 to 0.5 µg/mL,0.25 to 0.5 µg/mL
Nc1ccc(C(=O)NCC(=O)N2CCN(c3ccc(-c4cc(CNc5ccon5)on4)cc3F)CC2)c(O)c1 [I_32],–,–,0.25 to 0.5 µg/mL,0.25 to 0.5 µg/mL
Cc1ncc(-c2cccc(C(=O)NCC(=O)N3CCN(c4ccc(-c5cc(CNc6ccon6)on5)cc4F)CC3)c2)s1 [I_51],–,–,1 µg/mL,1 µg/mL
O=C(NCC(=O)N1CCN(c2ccc(-c3cc(CNc4ccon4)on3)cc2F)CC1)c1ccc([N+](=O)[O-])o1 [I_58],–,–,0.25 µg/mL,0.5 to 1 µg/mL
Cc1nc2cc(C(=O)NCC(=O)N3CCN(c4ccc(-c5cc(CNc6ccon6)on5)cc4F)CC3)ccc2n1CC1CC1 [I_82],–,–,2 µg/mL,2 µg/mL
C#CCn1c(C)nc2cc(C(=O)NCC(=O)N3CCN(c4ccc(-c5cc(CNc6ccon6)on5)cc4F)CC3)ccc21 [I_84],–,–,1 µg/mL,2 µg/mL
CC(=O)Nc1ccc(C(=O)NCC(=O)N2CCN(c3ccc(-c4cc(CNc5ccon5)on4)cc3F)CC2)cn1 [I_117],–,–,1 µg/mL,1 µg/mL
CNCC(=O)NCC(=O)N1CCN(c2ccc(-c3cc(CNc4ccon4)on3)cc2F)CC1 [I_152],–,–,2 µg/mL,2 µg/mL
O=C(NC(C(=O)N1CCN(c2ccc(-c3cc(CNc4ccon4)on3)cc2F)CC1)c1ccccc1)c1ccc2[nH]cnc2c1 (centres unmarked) [I_153],–,–,2 µg/mL,2 µg/mL
CN(CC(=O)N1CCN(c2ccc(-c3cc(CNc4ccon4)on3)cc2F)CC1)C(=O)c1ccc2[nH]cnc2c1 [I_155],–,–,2 µg/mL,2 µg/mL
O=C(NCC(=O)N1CCN(c2c(F)cc(-c3cc(CNc4ccon4)on3)cc2F)CC1)c1ccc2cccc(O)c2n1 [I_160],–,–,0.25 µg/mL,0.25 µg/mL
Cc1ccc(C(=O)N[C@H](C(=O)N2CCN(c3ccc(-c4cc(CNc5ccon5)on4)cc3F)CC2)C(C)C)cn1 [I_170],–,–,4 µg/mL,4 µg/mL
C[C@@H](NC(=O)c1ncccc1N)C(=O)N1CCN(c2ccc(-c3cc(CNc4ccon4)on3)cc2F)CC1 [I_171],–,–,2 µg/mL,1 µg/mL
O=C(NCC(=O)N1CCN(c2ccc(-c3cc(CO)on3)cc2F)CC1)c1ccc2cccc(O)c2n1 [I_192],–,–,0.5 µg/mL,0.5 µg/mL
Cc1ccc(C(=O)N[C@@H](C)C(=O)N2CCN(c3ccc(-c4cc(CO)on4)cc3F)CC2)cn1 [I_213],–,–,1 µg/mL,1 µg/mL
"O=C(NCC(=O)N1CCN(c2ccc(-c3cc(CNc4ccon4)on3)cc2F)CC1)Nc1ccc([N+](=O)[O-])cc1 [Ia_1, 1-[2-(4-{2-Fluoro-4-[5-(isoxazol-3-ylaminomethyl)isoxazol-3-yl]phenyl}piperazin-1-yl)-2-oxoethyl]-3-(4-nitrophenyl)urea]",1 µg/mL,2 µg/mL,–,–
"CC(=O)NC[C@H]1CN(c2ccc(N3CCOCC3)c(F)c2)C(=O)O1 [Linezolid, linezolid, reference compound]",2 µg/mL,4 µg/mL,–,–
